In PMC4383003, “Transfer hydrogenation catalysis in cells as a new approach to anticancer drug design” (Nature Communications, 2015):
Where “and” joins values, the source holds several entries; their conditions need not be identical. Equal values may be shown once.

How the values were obtained:
[1] = pKa* of aqua adducts of the complexes; assay type: physicochemical; conditions: pKa value determined in deuterated solvent
Description: Table 1 pKa* values for aqua adducts of catalysts 1–4 (and 8 for comparison) and turnover frequencies for transfer hydrogenation of NAD^+ using formate. | column: pKa*

[2] = Transfer hydrogenation of NAD+ to 1,4-NADH with formate, followed by 1H NMR; conditions: for TOF D2O/MeOH-d4: 23% MeOH-d4/77% D2O; for TOF D2O/MeOH-d4 / TOF D2O: NAD+ 2 mol equiv, formate 25 mol equiv, 310 K, pH* 7.2
Experimental: Complexes 1–7 were dissolved in MeOH-d4/D2O (5:1 v/v, 1.4 mM, 4 ml). Solutions of sodium formate (35 mM, 4 ml) and NAD^+ in D2O (2.8 mM, 2 ml) were also prepared and incubated at 310 K. In a typical experiment, 200-μl aliquots of each solution were added to a 5-mm NMR tube and the pH* adjusted to 7.2±0.1 (total volume 0.635 ml, final concentrations: Ru complex 0.44 mM; NAD^+ 0.88 mM; formate 11.02 mM; molar ratio 1:2:25). ^1H NMR spectra were recorded at 310 K every 162 s until the completion of the reaction.
Molar ratios of NAD^+ and NADH were determined by integrating the peaks at 9.33 and 6.96 p.p.m. (NAD^+ and 1,4-NADH, respectively). The turnover number for the reaction was calculated as follows: […]
where In is the integral of the signal at n p.p.m. and [NAD^+]0 is the concentration of NAD^+ at the start of the reaction.

[3] = test system: A2780 human ovarian cancer cells; test: In vitro growth inhibition assay (SRB), A2780; assay type: cell-based
Experimental: A2780 human ovarian carcinoma and MRC5 human fetal lung fibroblasts were obtained from the European Collection of Cell Cultures. Both cell lines were grown in Roswell Park Memorial Institute medium (RPMI-1640) supplemented with 10% of fetal calf serum, 1% of 2 mM glutamine and 1% penicillin/streptomycin. All cells were grown as adherent monolayers at 310 K in a 5% CO2-humidified atmosphere and passaged at ca. 70–80% confluency.
The antiproliferative activity of complexes 1–8 was determined in A2780 ovarian cancer cells and MRC5 fibroblasts. Briefly, 96-well plates were used to seed 5,000 cells per well. The plates were left to pre-incubate with drug-free medium at 310 K for 48 h before adding different concentrations of the compounds to be tested. A drug exposure period of 24 h was allowed. After this, supernatants were removed by suction and each well was washed with PBS. A further 72 h were allowed for the cells to recover in drug-free medium at 310 K. The sulforhodamine B (SRB) assay was used to determine cell viability. IC50 values, as the concentration that causes 50% cell death, were determined as duplicates of triplicates in two independent sets of experiments and their s.d. were calculated.

[4] = test system: A2780 ovarian cancer cells; test: Cell viability on co-administration of Ru complexes (1/3 x IC50) with formate or acetate; assay type: cell-based, human; conditions: for Cell viability / Cell viability percentages: A2780, complex 1/3 x IC50, 24 h
Experimental: Cell viability assays were carried out with complexes 1–8 in A2780 ovarian cancer cells. These experiments were carried out as described above with the following modifications: a fixed concentration of each Ru complex equal to 1/3 × IC50 was used in co-administration with three different concentrations of sodium formate or sodium acetate (0.5, 1.0 and 2.0 mM). To prepare the stock solution of the drug, the complex was dissolved in 5% dimethylsulfoxide and diluted in a 1:1 mixture of 0.9% saline:cell culture medium. This stock was further diluted using RPMI-1640 until working concentrations were achieved. Separately, stock solutions of sodium formate or sodium acetate were prepared in saline. The complex and formate were added to each well independently, but within 5 min of each other.
Supplementary Table 7: Percent cell viability of A2780 ovarian cancer cells exposed to equipotent concentrations of ruthenium complexes 1-3 and 5-8 (1/3 x […]
The experiments included 48 h of pre-incubation and 72 h of drug recovery, both in drug-free medium at 310 K in a 5% CO2 humidified atmosphere. All the experiments were performed as duplicates of triplicates in independent experiments and the error bars were calculated as the standard deviation from the mean.
Supplementary Table 11: Cell viability (%) of A2780 ovarian cancer cells exposed […]
administered with different concentrations of sodium acetate (0, 0.5, 1 and 2 mM).
The experiments involved 48 h of pre-incubation and 72 h of drug recovery, both in […]
Cell viability percentages (%)
Complex Acetate concentration (mM)

[5] = test system: A2780 ovarian cancer cells; test: Ruthenium accumulation in cancer cells (ICP-MS); assay type: cell-based, human; conditions: for Cell Ru: A2780, 1/3 x IC50, 24 h drug exposure, no recovery time; for Cell accum.: A2780, 24 h, 1/3 x IC50
Experimental: Briefly, 1.5 × 10^6 cells per well were seeded on a six-well plate. […] After this time, cells were washed, treated with trypsin-EDTA, counted and cell pellets were collected. Each pellet was digested overnight in concentrated nitric acid (73%) at 353 K; the resulting solutions were diluted using double-distilled water to give a final concentration of 5% HNO3 and the amount of Ru taken up by the cells was determined by ICP–MS. […]
Supplementary Table 3: Antiproliferative activity of complexes 1-8 in A2780 ovarian cancer cells and their cellular accumulation (expressed as ng Ru per million cells).
The latter experiments were carried out using equipotent concentrations of the […]
experiments were performed as duplicates of triplicates in independent experiments and the error bars were calculated as the standard deviation from the mean. […]

9-ethylguanine = test: Binding to model nucleobase 9-ethylguanine by 1H NMR; conditions: D2O, pH* 7.2 ± 0.1, 310 K
Experimental: Supplementary Table 4: Binding constants for formation of 9-EtG adducts of complexes 1-4 determined by 1H NMR. The experiments were performed in D2O, pH* 7.2 ± 0.1 and 310 K. Equilibrium was reached by the time the first 1H NMR spectrum was recorded (< 10 min). […]
DNA is believed to be the main target for [(bip)Ru(en)Cl]+ (8). Due to the structural similarity of the complexes 1-5 with complex 8, their binding to DNA was […]
Interaction with nucleobases
Initially, model nucleobases, 9-ethylguanine and 9-methyladenine were reacted with complexes 1-4 in D2O, 310 K and pH* 7.2 ± 0.1. The binding of the complexes to 9-EtG or 9-MeA was monitored by 1H-NMR spectroscopy. Peaks for the 9-EtG adducts were observed by the time the first spectrum was recorded (< 5 min after mixing), […]
equilibrium was reached rapidly. The binding constants for formation of 9-EtG adducts determined by NMR were between 60 and 106 mM-1 (Supplementary Table 4). These values are in the same range as that from the ethylenediamine complex [(bip)Ru(en)Cl]+ (K9-EtG= 60.3 mM-1),2 which also binds strongly to DNA.3, 4 The high resolution mass spectrum confirmed the formation of [(η6-arene)Ru(XEn)(9-EtG)]+ (Supplementary Table 5). The interaction of complexes 1-4 with 9-MeA was also investigated, but no reaction was detected by 1H-NMR.
It is well established that N7 of guanine is the preferred nucleotide binding site for many transition metals ions. 2-8 Furthermore, strong and selective binding to N7 of 9-EtG, has been observed for [(η6-arene)Ru(en)Cl]+.3, 4 A pH* titration of […]

calf thymus DNA = test: Interaction with calf thymus DNA (ethanol precipitation, ICP-MS of Ru); assay type: binding; conditions: for free Ru in supernatant: CT-DNA, 1:3 complex:base pairs, 310 K
Experimental: Interaction with calf thymus DNA
Complex 2 was chosen as representative of the series. A stock solution of complex 2 (0.7 mM in 5 % acetonitrile/water) was prepared and aliquots of 66 μL were added to a solution of CT-DNA (final ratio 1:3 complex: base pairs-DNA) in water, 2 mM cacodylate buffer and 2 mM NaCl. The reaction mixture was incubated at 310 K, and aliquots of 300 μL were taken at different intervals during a period of 27 h. The DNA was then precipitated by addition of ethanol (700 μL, final concentration 70% v/v). Ru complexes which are strongly bound to CT-DNA will precipitate together with the DNA upon addition of ethanol, and, therefore the ruthenium concentration in the supernatant should decrease. However, no changes in the Ru concentration were detected by ICP-MS showing that the interaction between the complex 2 and DNA is weak (t = 0 h / 64.2 ± 0.7 µM, t = 24 h/ 65.1 ± 0 .3 µM free Ru). In contrast complex 8

CT-DNA = test: Thermal stability (melting temperature) of CT-DNA by UV-Vis; assay type: binding, calf; conditions: for Tm: CT-DNA, 1:3 complex:base pairs, 2 mM cacodylate pH 7.4, 2 h 310 K
Experimental: Supplementary Table 6: Melting temperature (Tm) of CT-DNA in the presence of 8 or complex 2 (ratio 1:3, complex: base pairs-DNA). The reactions were carried out in cacodylate buffer (2 mM, pH 7.4), and samples incubated for 2 h at 310 K. […]
a variation in melting temperature between free DNA and DNA in the presence of the corresponding complex. * […] from free DNA using a T-test analysis. ** p < 0.01 from free DNA using a T-test analysis […]
Thermal stability of CT-DNA
The melting temperature of CT-DNA in the presence and absence of complex 2 [(p-cym)Ru(TsEn)Cl] was determined by UV-Vis spectroscopy (Supplementary Table 6). Higher melting temperatures indicate increased stabilization of the DNA, which is the effect produced by DNA-intercalators and often by direct metal coordination to […]
the nucleobases.11 Destabilization of DNA can result in a decrease of the melting […]
In the presence of complex 8, the melting temperature of CT-DNA increased In agreement with the literature, 12 by 14 K, in 2 mM NaCl, 2 mM cacodylate buffer.
This increase is due to Ru binding to DNA as well as intercalation. 12 However, upon increasing the chloride concentration by ca. 10x (20 mM NaCl) the melting temperature of CT-DNA in the presence of complex 8, increased only by 7 K. This effect has previously been reported and it is attributed to the partial inhibition of hydrolysis, and, therefore, inhibition of coordination to DNA. 12, 13
Experiments performed in the presence of complex 2, in 2 mM cacodylate buffer and […]
NaCl, no decrease of the melting temperature was observed. […]

[6] = pH* titration of the 9-EtG adduct (1H NMR); assay type: physicochemical; conditions: protonation/deprotonation of N1 of coordinated 9-EtG, H8 chemical shift versus pH*
Description: [(p-cym)Ru(TsEn)(9-EtG)]+ was used to confirm that the complex binds to N7. A plot
of the chemical shift of H8 from bound 9-EtG (Supplementary Figure 3), versus pH*
from coordinated 9-EtG and therefore we conclude that the binding of complex 2 to […]

SMILES | pKa* [1] | TOF D2O/MeOH-d4 [2] [h⁻¹] | TOF D2O [2] [h⁻¹] | IC50 ([3]; A2780, Supplementary Table 3) [µM] | Cell viability ([4]; formate 0.5 mM) [%] | Cell viability ([4]; formate 1 mM) [%] | Cell viability ([4]; formate 2 mM) | Cell Ru [5] [ng x 106 cells] | Cell accum. [5] [ng Ru/10^6 cells] | Binding constant for formation of 9-EtG adducts (9-ethylguanine) [mM⁻¹] | other results
CS(=O)(=O)[N-]CCN.Cc1ccc(C(C)C)cc1.[Cl-].[Ru+2] [Complex 1, [(p-cym)Ru(MsEn)Cl]] | 9.86±0.01 | 1.25 ± 0.03 | 1.11 ± 0.02 | 11.9 ± 0.8 | 61± 1 | 40.0 ± 0.4 | 1.5 ± 0.1% and ~1% | 0.16 ± 0.02 | 0.16 | 105.4 ± 2.3 | decrease in cell survival ([4]; A2780, formate increased from 0 to 2 mM): ca. 50 fold
Cc1ccc(C(C)C)cc1.NCC[N-]S(=O)(=O)c1ccc(C(F)(F)F)cc1.[Cl-].[Ru+2] [Complex 3, [(p-cym)Ru(TfEn)Cl]] | 9.71±0.01 | 5.7 ± 0.3 | 3.06 ± 0.05 | 14.2 ± 0.8 | 60± 2 | 39.4 ± 2.0 | 19 ± 2% | 0.31 ± 0.04 | 0.31 | 60.5 ± 6.0 | Cell viability ([4]; formate 0 mM): 71 ± 2%
Cc1ccc(C(C)C)cc1.NCC[N-]S(=O)(=O)c1ccc([N+](=O)[O-])cc1.[Cl-].[Ru+2] [Complex 4, [(p-cym)Ru(NO2En)Cl]] | 9.56±0.04 | 9.6 ± 0.3 | 4.1 ± 0.1 | 14.7 ± 0.6 | – | – | – | – | – | 92.8 ± 1.0 | time for completion of the catalytic reaction ([2]; 6 mol equiv of NAD+): 20.5 min
NCCN.[Cl-].[Ru+2].c1ccc(-c2ccccc2)cc1 [Complex 8, [(bip)Ru(en)Cl]^+, reference compound] | – | – | – | 2.17 ± 0.08 | 71 ± 1 | 61 ± 1 | 39 ± 1% and ~39% | – | – | – | IC50 ([3]; A2780, 24 h drug exposure, no formate): 2.2 µM; Cell viability percentages ([4]; acetate 0 mM): 75.4 ± 2%; Cell viability percentages ([4]; acetate 0.5 mM): 73.1 ± 0.8%; Cell viability percentages ([4]; acetate 1 mM): 72 ± 1%; free Ru in supernatant (calf thymus DNA; t = 0 h): 58.3 ± 0.3 µM; free Ru in supernatant (calf thymus DNA; t = 24 h): 48.5 ± 0.6 µM; binding to calf thymus DNA (calf thymus DNA; ICP-MS of Ru, up to 27 h at 310 K, 1:3 complex:DNA base pairs, 2 mM cacodylate pH 7.4, 2 mM NaCl): bind strongly; increase of melting temperature of CT-DNA (CT-DNA; 2 mM NaCl, 2 mM cacodylate buffer): -259 °C; increase of melting temperature of CT-DNA (CT-DNA; 20 mM NaCl): -266 °C; Tm (CT-DNA; 2 mM NaCl): 63.8 ± 0.8 °C; Tm (CT-DNA; 20 mM NaCl): 67.1 ± 0.6 °C; ΔTm (CT-DNA; versus free DNA, 20 mM NaCl): 7.9 °C
CCn1cnc2c(=O)[nH]c(N)nc21.Cc1ccc(C(C)C)cc1.Cc1ccc(S(=O)(=O)[N-]CCN)cc1.[Ru+2] [[(p-cym)Ru(TsEn)(9-EtG)]+] | – | – | – | – | – | – | – | – | – | – | pKa* [6]: 8.77
